In patent US20120196858A1, “METHOD OF PROMOTING APOPTOSIS AND INHIBITING METASTASIS” (Poniard Pharmaceuticals ,Inc., priority 2009, published 2012):
Where two headings read alike, the source gives them in different places.

Key:
[1] = molecular target: T1, TrkA (tropomyosin-related kinase A) (Homo sapiens, UniProt P04629); assay: Millipore KinaseProfiler selectivity screen; format: biochemical
T1 construct: purchased Millipore (KinaseProfiler service)
Method: (§1) Baculovirus FAK catalytic domain and in vitro kinase assays: The FAK catalytic domain region (411-686) was generated by polymerase chain reaction using the primers 5′-[…]-3′ 5′-[…]-3′, cloned into pGEX4T as a fusion with GST, and moved into the pAcG2T baculovirus expression vector (Pharmingen, Baculogold). Virus clones were identified by plaque assays and amplified. For protein expression, SF9 cells were transduced at a multiplicity of infection of 2-5 pfu/cell and cultured at 27° C. for 48 h. Glutathione agarose affinity chromatography were used to purify GST-FAK (411-686) followed by size fractionation using hiload 16/60 Superdex chromatography (GE Healthcare). Protein was concentrated and stored frozen in 50 mM Tris pH 8.0, 150 mM NaCl, 1 mM Na orthovanadate, 0.5 mM EDTA, 0.5 mM EGTA, 0.1% β-mercaptoethanol, and 20% glycerol. Purity was estimated at >90% by SDS-PAGE. GST-FAK in vitro kinase activity was measured and compared to His-tagged FAK 411-686 (Millipore) using the K-LISA screening kit (Calbiochem) and poly(Glu:Tyr) (4:1) copolymer (P0275, Sigma) as a substrate immobilized on microtiter plates. […] Serial diluted compounds at ½-Log concentrations (starting at 1 μM) were tested in triplicate. Substrate phosphorylation was measured using horseradish peroxidase-conjugated anti-pTyr antibodies (PY20, Santa Cruz Biotechnology) with spetrophotometic color quantitation. IC50 values were determined using the Hill-Slope Model. Kinase selectivity profiling was performed by using the KinaseProfiler service (Millipore).

insulin receptor (IR) = molecular target: T2, insulin receptor (IR) (Homo sapiens, UniProt P06213); assay: Millipore KinaseProfiler selectivity screen; format: biochemical; settings: read-out: kinase inhibition
T2 construct: purchased Millipore (KinaseProfiler service)
T2 sequence (P06213 28-1382): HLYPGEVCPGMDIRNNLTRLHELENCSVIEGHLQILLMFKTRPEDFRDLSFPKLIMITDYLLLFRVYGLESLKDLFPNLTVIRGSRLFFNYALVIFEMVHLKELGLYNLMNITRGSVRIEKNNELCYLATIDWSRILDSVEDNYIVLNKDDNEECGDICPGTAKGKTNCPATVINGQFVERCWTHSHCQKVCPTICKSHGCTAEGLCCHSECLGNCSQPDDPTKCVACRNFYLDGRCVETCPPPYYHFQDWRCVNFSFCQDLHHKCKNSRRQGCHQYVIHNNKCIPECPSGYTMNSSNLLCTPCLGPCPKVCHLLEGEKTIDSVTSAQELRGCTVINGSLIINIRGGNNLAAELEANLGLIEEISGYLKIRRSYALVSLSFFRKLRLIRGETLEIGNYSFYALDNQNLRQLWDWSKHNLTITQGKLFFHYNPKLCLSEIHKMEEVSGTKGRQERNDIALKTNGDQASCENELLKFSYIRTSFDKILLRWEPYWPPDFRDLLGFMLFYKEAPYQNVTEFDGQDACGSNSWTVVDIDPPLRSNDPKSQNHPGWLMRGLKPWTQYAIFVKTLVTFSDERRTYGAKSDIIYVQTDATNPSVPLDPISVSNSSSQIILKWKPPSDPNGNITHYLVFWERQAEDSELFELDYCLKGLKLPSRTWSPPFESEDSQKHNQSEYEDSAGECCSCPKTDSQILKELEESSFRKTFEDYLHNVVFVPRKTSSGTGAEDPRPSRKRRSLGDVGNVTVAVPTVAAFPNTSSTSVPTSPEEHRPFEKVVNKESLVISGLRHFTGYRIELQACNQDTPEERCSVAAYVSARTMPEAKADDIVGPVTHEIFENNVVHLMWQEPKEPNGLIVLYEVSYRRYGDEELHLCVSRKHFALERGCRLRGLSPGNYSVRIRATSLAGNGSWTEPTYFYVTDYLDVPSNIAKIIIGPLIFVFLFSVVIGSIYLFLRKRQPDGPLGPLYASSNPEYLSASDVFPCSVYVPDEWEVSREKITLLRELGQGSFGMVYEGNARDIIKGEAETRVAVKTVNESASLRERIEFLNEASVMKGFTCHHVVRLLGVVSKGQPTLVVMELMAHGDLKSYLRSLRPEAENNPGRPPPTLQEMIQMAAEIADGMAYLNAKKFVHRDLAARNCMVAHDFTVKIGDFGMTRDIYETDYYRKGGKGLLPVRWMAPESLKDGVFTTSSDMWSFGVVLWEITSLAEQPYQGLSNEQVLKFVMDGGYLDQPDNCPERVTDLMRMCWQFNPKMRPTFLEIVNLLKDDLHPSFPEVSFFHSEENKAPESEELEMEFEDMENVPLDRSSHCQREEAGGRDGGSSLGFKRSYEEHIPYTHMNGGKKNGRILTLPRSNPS
Method: as §1

FAK = molecular target: T3, FAK (Homo sapiens, UniProt Q05397); assay: Millipore KinaseProfiler selectivity screen; format: biochemical
T3 construct: purchased Millipore (KinaseProfiler service)
T3 sequence (Q05397 whole entry): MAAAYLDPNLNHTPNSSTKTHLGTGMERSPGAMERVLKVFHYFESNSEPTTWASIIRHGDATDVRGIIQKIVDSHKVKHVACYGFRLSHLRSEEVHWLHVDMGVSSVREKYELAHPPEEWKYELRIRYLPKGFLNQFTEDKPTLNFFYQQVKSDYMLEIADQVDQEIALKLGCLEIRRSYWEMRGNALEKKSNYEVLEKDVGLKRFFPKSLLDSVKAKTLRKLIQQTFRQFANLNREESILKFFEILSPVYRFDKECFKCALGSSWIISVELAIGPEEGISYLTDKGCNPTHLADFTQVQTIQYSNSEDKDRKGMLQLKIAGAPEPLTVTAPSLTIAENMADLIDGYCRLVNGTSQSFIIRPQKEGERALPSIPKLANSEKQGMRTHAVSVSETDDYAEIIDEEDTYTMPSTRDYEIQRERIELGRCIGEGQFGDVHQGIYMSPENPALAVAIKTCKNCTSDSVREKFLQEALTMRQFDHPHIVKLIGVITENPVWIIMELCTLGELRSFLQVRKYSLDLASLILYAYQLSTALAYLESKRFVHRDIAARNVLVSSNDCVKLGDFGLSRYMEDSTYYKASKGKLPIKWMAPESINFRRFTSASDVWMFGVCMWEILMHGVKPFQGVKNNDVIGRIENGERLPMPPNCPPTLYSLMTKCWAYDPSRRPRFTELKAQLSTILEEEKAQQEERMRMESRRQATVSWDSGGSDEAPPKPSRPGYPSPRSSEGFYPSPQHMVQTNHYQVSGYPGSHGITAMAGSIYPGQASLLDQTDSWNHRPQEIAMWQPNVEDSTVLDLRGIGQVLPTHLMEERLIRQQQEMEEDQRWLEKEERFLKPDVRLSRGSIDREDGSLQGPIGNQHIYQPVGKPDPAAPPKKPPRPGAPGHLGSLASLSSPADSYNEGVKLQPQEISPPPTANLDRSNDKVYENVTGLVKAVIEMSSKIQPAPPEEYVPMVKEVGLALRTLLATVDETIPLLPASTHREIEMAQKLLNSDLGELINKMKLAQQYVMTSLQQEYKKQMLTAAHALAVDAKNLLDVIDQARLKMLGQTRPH
Method: as §1

[2] = molecular target: T4, Flt3 (FMS-like tyrosine kinase 3) (Homo sapiens, UniProt P36888); assay: Millipore KinaseProfiler selectivity screen; format: biochemical
T4 construct: purchased Millipore (KinaseProfiler service)
T4 sequence (P36888 27-993): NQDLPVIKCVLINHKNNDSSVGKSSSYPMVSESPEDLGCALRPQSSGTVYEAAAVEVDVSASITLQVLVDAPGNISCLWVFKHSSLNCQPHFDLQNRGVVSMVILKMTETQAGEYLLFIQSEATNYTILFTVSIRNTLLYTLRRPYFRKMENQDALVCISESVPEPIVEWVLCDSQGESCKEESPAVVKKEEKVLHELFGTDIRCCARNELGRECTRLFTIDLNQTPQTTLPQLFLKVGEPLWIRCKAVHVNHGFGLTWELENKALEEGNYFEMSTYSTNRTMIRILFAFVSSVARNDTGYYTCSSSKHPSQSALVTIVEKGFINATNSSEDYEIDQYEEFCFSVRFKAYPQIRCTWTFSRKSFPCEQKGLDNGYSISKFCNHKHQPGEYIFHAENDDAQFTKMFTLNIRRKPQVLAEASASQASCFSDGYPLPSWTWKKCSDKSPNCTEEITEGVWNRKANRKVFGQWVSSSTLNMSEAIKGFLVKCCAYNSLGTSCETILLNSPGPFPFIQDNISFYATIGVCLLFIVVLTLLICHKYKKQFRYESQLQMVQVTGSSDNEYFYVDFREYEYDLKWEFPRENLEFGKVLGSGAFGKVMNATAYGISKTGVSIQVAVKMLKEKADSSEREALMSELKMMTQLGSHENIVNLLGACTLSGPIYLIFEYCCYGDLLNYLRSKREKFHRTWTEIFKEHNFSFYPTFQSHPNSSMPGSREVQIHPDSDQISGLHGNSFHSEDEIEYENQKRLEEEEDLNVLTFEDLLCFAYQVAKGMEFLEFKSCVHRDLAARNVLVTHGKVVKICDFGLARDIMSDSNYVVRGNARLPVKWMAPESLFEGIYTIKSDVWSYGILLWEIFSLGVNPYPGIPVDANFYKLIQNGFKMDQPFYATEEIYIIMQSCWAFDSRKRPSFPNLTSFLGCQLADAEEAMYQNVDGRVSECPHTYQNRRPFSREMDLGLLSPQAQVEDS
Method: as §1

[3] = molecular target: T5, CDK2 (cyclin-dependent kinase 2)/cyclin A (Homo sapiens, UniProt P24941); assay: Millipore KinaseProfiler selectivity screen; format: biochemical
T5 construct: purchased Millipore (KinaseProfiler service)
Method: as §1

4T1 cells [4] = assay: Cell cycle analysis by propidium iodide staining and flow cytometry; format: cell-based, murine; settings: 1.0 μM
Method: Cell pellets were resuspended in 300 p. 1 of PBS containing propidium iodide (PI) (10 μg/ml), DNAse-free RNAse (100 μg/ml, Qiagen), and then incubated at 37° C. with agitation for 1 h. Samples were analyzed by flow cytometry (FACSCalibur, Becton-Dickinson) and cell cycle analyses were performed by ModFit LT3.2 software (Verity software house). Hypodiploid DNA content as a measure of cell apoptosis was detected by PI staining as described ^29. […] Quadrant gates were positioned based on cell autofluorescence (negative) staurosporine-treated (positive) controls. Apoptosis was calculated to be the percent of annexin V-positive cells. In the soft agar assays, apoptosis was quantified by visual inspection of at least 200 cells and was defined as the appearance of membrane blebbing or cell shrinkage. Apoptosis was also detected by appearance of cleaved caspase-3 antibody reactivity in protein lysates by immunoblotting.

4T1 cells [5] = assay: Time lapse scratch-wound closure motility assay; format: cell-based
Method: Cell migration assays: Serum-stimulated chemotaxis using Millicell (12 mm diameter with 8 μm pores; Millipore) chambers were performed as described previously^49. Both sides of membrane were coated with fibronectin (10 μg/ml) and chemotaxis was stimulated by addition of 10% FBS to the lower chamber. Data points represent cell counts (9 fields) from three migration chambers from at least two independent experiments. For scratch-wound closure motility assays, cells were seeded onto fibronectin-coated (10 μg/ml) glass bottom 12 well plates (MatTek) and serum starved (0.5% FBS) for 16 h. Cells were wounded with a pipette tip, washed with phosphate-buffered salin (PBS), and replenished with 10% FBS media with or without FAK inhibitor (1 μM). Time-lapse series was obtained by acquiring images at 10 min intervals for up to 22 h, at 37° C. with humidity and CO2 regulation using a 10× objective on an automated stage (Olympus IX81). Cell trajectories and distance traveled were measured by tracking nucleus position over time using Image J.

MDA-MB-231 tumors = assay: Orthotopic MDA-MB-231 breast carcinoma model; format: in vivo, NOD/SCID mice; settings: 0.5 mg/ml ad libitum
Method: Orthotopic breast cancer models: One million 4T1 or MDA-MB-231 cells in 10 μl PBS were injected into the T4 mammary fat pad of 8-10 week old mice using a Hamilton syringe. […] Tumors were measured every 3-4 days with digital vernier calipers and tumor volume (mm^3) was calculated using the formula: V=axb^2/2 (a=length, mm; b=width, m) Body weight was measured weekly to assess toxicity. Lungs, spleen, and primary tumors were surgically removed and weighed. Tumors sections were homogenized in protein lysis buffer for immunoblotting or placed in Optimal Cutting Temperature (OCT) compound (Tissue Tek), frozen in liquid nitrogen, thin sectioned (7 μM) using a cryostat (Leica 3050S), and mounted onto glass slides.
Metastatic tumor burden (number of metastatic lesion or mean pixel volume) was determined and groups (Negligible, Moderate, and High) were separated based upon numbers distribution. After imaging, lungs were fixed in Bouin's solution (Sigma), paraffin embedded, sectioned, and stained with hematoxylin and eosin (H&E) for histological evaluation. Images were acquired using a differential interference contrast-equipped Olympus IX81 inverted microscope and an Olympus DP71 digital color camera using Slidebook (v5.0) software. For MDA-MB-231 tumor metastasis studies, lungs were inflated by intratracheal injection of a 1:1 solution of OCT in sterile water using a 25 gauge needle. Lungs were resected, embedded in OCT, and frozen in liquid nitrogen.

[6] = Pharmacokinetic (PK) evaluation in mice; format: in vivo, Balb/c mice
Method: Blood samples were collected via terminal heart puncture at 0.5, 1, 2, 4, 8, 12, 24 and 48 h for p.o. administration and 0.083, 0.25, 0.5, 1, 2, 4, 8, 12, 24 and 48 h for i.p. and i.v. administration. 3 mice per time point were used. For ad libitum administration, blood samples were collected after 7 days using five mice per group. Samples were collected in tubes containing 0.05 ml 0.5 M EDTA, centrifuged at 900×g for 15 min at room temperature, and the plasma collected. PND-1186 content was determined by high-performance liquid chromatography (HPLC) and mass spectroscopy analyses (see Supplemental Methods).

MDA-MB-231 cells = assay: Experimental metastasis assay (tail vein injection); format: in vivo, nude mice; settings: 150 mg/kg p.o. pre-administered; 1 and 6 h
Method: To determine experimental metastasis burden, lungs were removed 1 and 6 h post cell injection, rinsed in PBS, and dorsal plus ventral fluorescent images acquired using OV100 imaging. A common threshold for mCherry fluorescence was set for all images and the total fluorescent lung area was calculated using Image J.

T1 sequence (P04629 33-796): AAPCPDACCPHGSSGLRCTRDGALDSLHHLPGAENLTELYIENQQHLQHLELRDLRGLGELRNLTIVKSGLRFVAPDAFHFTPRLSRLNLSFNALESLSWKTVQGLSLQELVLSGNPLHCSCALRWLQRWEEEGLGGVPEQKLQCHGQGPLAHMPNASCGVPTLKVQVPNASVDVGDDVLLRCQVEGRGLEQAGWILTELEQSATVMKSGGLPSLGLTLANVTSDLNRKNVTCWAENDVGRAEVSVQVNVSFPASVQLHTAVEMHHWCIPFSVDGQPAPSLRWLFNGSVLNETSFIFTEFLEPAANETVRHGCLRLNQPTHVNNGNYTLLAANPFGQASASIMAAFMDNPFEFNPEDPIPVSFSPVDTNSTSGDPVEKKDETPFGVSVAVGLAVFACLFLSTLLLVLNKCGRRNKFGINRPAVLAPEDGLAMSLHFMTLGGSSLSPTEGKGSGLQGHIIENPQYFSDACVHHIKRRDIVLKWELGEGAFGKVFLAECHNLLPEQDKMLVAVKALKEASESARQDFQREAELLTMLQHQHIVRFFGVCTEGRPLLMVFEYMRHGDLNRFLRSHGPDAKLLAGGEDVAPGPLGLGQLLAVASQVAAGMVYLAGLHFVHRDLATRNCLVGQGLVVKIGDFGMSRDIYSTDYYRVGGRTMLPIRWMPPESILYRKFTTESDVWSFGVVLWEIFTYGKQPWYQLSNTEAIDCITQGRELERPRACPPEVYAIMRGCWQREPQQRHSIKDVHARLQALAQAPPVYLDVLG

## CNC(=O)c1ccccc1Nc1cc(Nc2ccc(N3CCOCC3)cc2OC)ncc1C(F)(F)F [PND-1186]
[1]
  inhibition at 1 µM: > 50%
Insulin receptor (IR)
  inhibition at 1 µM: > 50%
FAK; 0.1 μM PND-1186
  kinase inhibition specificity: displayed specificity for FAK as well as Flt3
FAK; 1 μM PND-1186
  remaining kinase activity: negligible activity
[2]; 0.1 μM PND-1186
  kinase inhibition specificity: displayed specificity for FAK as well as Flt3
[2]; 1 μM PND-1186
  remaining kinase activity: negligible activity
[3]
  inhibition at 1 µM: > 50%
4T1 cells [4]
  cell cycle distribution, suspended cells: did not reveal cell cycle differences
4T1 cells [4]; 72 h, vs DMSO
  cell cycle distribution, adherent cells: slight accumulation in the S and G2/M phases
4T1 cells [4]; PI staining
  sub-diploid (1N) cells, suspended cells: accumulation of sub-diploid (1N) cells
4T1 cells [5]; 1 μM over 22 h
  cell detachment or death: No evidence of 4T1 cell detachment or death
4T1 cells [5]; 1 μM, 22 h (DMSO 89%)
  wound closure: 40%
MDA-MB-231 tumors
  FAK pY397 phosphorylation in MDA-MB-231 tumors: significantly reduce FAK pY397 phosphorylation
  reduction of number of metastatic lung lesions: > 3.5 fold
MDA-MB-231 tumors; 15 days of administration
  tumor size by Day 27 (caliper): control tumors were significantly larger
MDA-MB-231 tumors; Day 70
  decrease in final tumor weight: > 5 fold
[6]; 0.5 mg/ml ad libitum, mice
  CSS: 1.16 µM
[6]; 2 mg/kg i.v., mice
  AUC(0-inf): 6,960 ng · h/mL
  Cl: 4.78 mL/min/kg
  Vd: 0.714 L/kg
  t1/2: 1.72 h
[6]; 30 mg/kg i.p., mice
  AUC(0-inf): 32,500 ng · h/mL
  Cmax: 34.8 µM
  TMAX: 0.25 h
  t1/2: 2.27 h
[6]; 100 mg/kg i.p., mice
  AUC(0-inf): 147,000 ng · h/mL
  Cmax: 117 µM
  TMAX: 0.50 h
  t1/2: 2.65 h
[6]; 150 mg/kg oral, by 4 h
  maximal plasma level: ~14 µM
[6]; 150 mg/kg oral, for 12 h
  sustained plasma level: above 3 μM
[6]; 150 mg/kg p.o., mice
  AUC(0-inf): 77,400 ng · h/mL
  Cmax: 14 µM
  TMAX: 4.00 h
  t1/2: 2.15 h
[6]; Balb/c, mouse, plasma, oral, 0.5 mg/kg, 0.5 mg/ml ad libitum, mice, read-out: AUC(0-inf)
  AUC(0-inf): 13.1 ng·h/mL
[6]; i.p. and p.o. dosing
  bioavailability (% F): 14.8 to 42.2%
  terminal half lives (t1/2): 2.15 to 2.65 h
[6]; mouse, in vivo
  dose dependence of plasma concentrations, Cmax and AUC(0-inf): increased in a linear fashion as a function of dose
MDA-MB-231 cells
  accumulation of tumor cells in the lungs: significantly inhibited the accumulation of tumor cells in the lungs
